# Key:
# [1] = test system: 4T1 murine breast cancer cells; experiment: Intrasplenic injection of 4T1 murine breast cancer cells, liver metastasis; assay type: in vivo, mouse; details: 4-week post injection; control phage or LSALT expressing phage
# [2] = test system: 70 W human melanoma cells; experiment: Tail vein injection of 70 W human melanoma cells expressing luciferase, lung tumor burden; assay type: in vivo, mice
# Experimental: FIG. 13A-13F show the tumor burden in lung tissue from mice injected via tail vein with 1×10^6 70 W human melanoma cells expressing luciferase, with or without prior injection of 50 μM or 500 μM LSALT peptide (13A-13C) and representative images of lungs with visible melanotic lung […] in mice injected via tail vein with 1×10^6 70 W human melanoma cells expressing luciferase, with or without prior injection of 50 μM or 500 μM LSALT peptide mice (13D-13F).
# FIG. 14A-14D show Xenogen images of lungs from mice injected via tail vein with human melanoma cells expressing luciferase with (14B) and without (14A) pretreatment with LSALT; and Xenogen images of lungs from mice injected treated as described for FIGS. 13A and 13B, and in the presence (14D) and absence (14C) of neutrophil depletion using anti-Ly6G/GRI antibody.
# In one treatment study, […] melanoma cells expressing luciferase were injected via tail vein with or without prior injection of 50 μM or 500 μM LSALT peptide.
# Animals were treated as above in the absence or presence of Neutrophil depletion using Anti-Ly6G/GR1, and the animals were imaged with the Xenogen light system.
# [3] = test system: 143B human osteosarcoma cells; experiment: Tail vein injection of 143B human osteosarcoma cells, mouse model for metastasis; assay type: in vivo
# Experimental: 5×10^5 143B human osteosarcoma cells stably expressing luciferase were injected into the tail vein of animals 5 mins after IV delivery of PBS or LSALT-peptide. Animals were sacrificed after 3 weeks. Lungs were then harvested, fixed in formalin, and embedded in paraffin. […] Metastatic lesions were visualized by staining human 143B osteosarcoma cells with anti-human nucleolin (brown). […] PBS n=4. LSALT-peptide n=6.
# In a similar model, 5×10^5 143B human osteosarcoma cells stably expressing luciferase were injected into the tail vein of animals 5 mins after IV delivery of PBS or LSALT-peptide. Animals were imaged weekly using bioluminescence imaging (Xenogen, IVIS 200).
# [4] = test system: BALB/c mice; experiment: LPS intoxication model of sepsis; assay type: in vivo; details: versus control-bacteriophage/LPS and LPS only
# Source text: An intoxication model of sepsis was used to assess peptide efficacy on sepsis. In intoxication models, mice are challenged with a noninfectious, proinflammatory compound, such as LPS or killed bacteria. In the present study, protocols were used that followed Andonegui G, et al., J Clin Invest. 2009 July; 119(7):1921-30; and Yipp B G, et al. J Immunol. 2002 May 1; 168(9):4650-8.
# Briefly, purified LPS isolated from E. Coli was used to initiate endotoxemia response in BALB/c mice 6-8 weeks old. Mice were injected with LSALT bacteriophage that contain lethal amounts of LPS endotoxin.
# When the animals started to show signs of distress they were sacrificed by euthanasia. All mice treated in this group (5 out of 5) had to be sacrificed due to a septic response.
# [5] = prior injection of 50 μM or 500 μM, 4 weeks post-injection
sequence,measurement,setting,value
LSALTPSPSWLKYKAL (listed as Homo sapiens) [LSALT peptide],"FIG. 12 result, printed as number of neutrophils present in liver sinusoid tissue",[1],significantly reduced the number of neutrophils present in liver sinusoid tissue
same,"tumor burden by Xenogen imaging with neutrophil depletion (FIGS. 14C, 14D)",[2]; neutrophil depletion using Anti-Ly6G/GR1,the same result was seen
same,"tumor burden in the lungs, histology and excised lungs (FIG. 13)",[2]; [5],the least tumor burden
same,visible melanotic lung nodules (FIG. 13),[2]; [5],least frequently
same,"tumor burden by Xenogen imaging (FIGS. 14A, 14B)",[2]; without neutrophil depletion,progressively less tumor burden
same,metastatic burden in mouse liver by bioluminescence (FIG. 16),"[3]; IV delivery 5 mins before cells, 3 weeks post injection",reduction in bioluminescence
same,number of metastatic lesions in mouse lung (FIG. 15),"[3]; IV delivery 5 mins before cells, 3 weeks, histological sections",reduction in metastatic lesions
same,metastatic spread of osteosarcoma cell line,"[3]; mouse, in vivo",blocks the metastatic spread of an osteosarcoma cell line to the liver
same,neutrophil adhesion in sinusoids / neutrophil recruitment to the liver (FIG. 17A),[4],reduced neutrophil recruitment to the liver

# — patent US11083773B2, “Peptides that block leukocyte recruitment and methods of use” (ARCH CANCER THERAPEUTICS, INC., priority 2014, dated 2021)
